By melting point is commonly meant the temperature, or range, at which the solid turns liquid.

Data on four compounds can be found in patent US8802597B2, “Herbicidal pyrimidines” (E I du Pont de Nemours and Company, priority 2003, dated 2014).

Each structure is given as a SMILES string. Like-named read-outs stand apart in the source and are kept apart here.

Series [1] deals with sulfonylurea herbicide-resistant (SU-resistant) catchweed bedstraw (GALAP; Galium aparine). Kind of series: Test K postemergence. The conditions noted are these: 16 g a.i./ha, 15 days. The format is in vivo. How it is done: (§1) Seeds of plant species selected from sulfonylurea herbicide-susceptible (SU-susceptible) and sulfonylurea herbicide-resistant (SU-resistant) catchweed bedstraw (GALAP; Galium aparine) and wheat (TRZAW; Triticum aestivum) were treated with postemergence applications of test chemicals formulated in a non-phytotoxic solvent mixture which included a surfactant. Plants were treated at the 2-3 leaf stage and 2 whorl stage for wheat and catchweed bedstraw, respectively. Treated plants and controls were maintained in a controlled growth environment for 15 days after which time all species were compared to controls and visually evaluated. Plant response ratings, summarized in Table K, are based on a scale of 0 to 100 where 0 is no effect and 100 is complete control. A dash (-) response means no test result.

Series [2] concerns sulfonylurea herbicide-susceptible (SU-susceptible) catchweed bedstraw (GALAP; Galium aparine). The series can be described thus: Test K postemergence. The conditions noted are these: 16 g a.i./ha, 15 days. The format is in vivo. How it is done:
as §1

For series [3], the system named is wheat (TRZAW; Triticum aestivum). Kind of series: Test K postemergence. The format is in vivo. The conditions noted are these: 16 g a.i./ha, 15 days. How it is done: as §1
Series [4] relates to barnyardgrass (Echinochloa crus-galli). Kind of series: Test A pre/postemergence. The format is in vivo. The conditions noted are these: Echinochloa crus-galli, 240 h, read-out: Plant response rating, Barnyardgrass; for pest or weed control at 125 g/ha: 125 g ai/ha; for pest or weed control at 500 g/ha: 500 g ai/ha. The essentials:
(§2)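 Pre/post greenhouse screen; loam/sand soil; solvent + surfactant formulation; pre = directed soil spray at planting, post = 1–2 leaf plants, 2–10 cm; ~10 d; visual 0–100 rating vs untreated.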

For series [5], the system named is crabgrass (Digitaria sanguinalis). Kind of series: Test A pre/postemergence. The format is in vivo. The conditions noted are these: Digitaria sanguinalis, 240 h, read-out: Plant response rating, Crabgrass; for pest or weed control at 125 g/ha: 125 g ai/ha; for pest or weed control at 500 g/ha: 500 g ai/ha. Put shortly: as §2
For series [6], the system named is giant foxtail (Setaria faberi). Kind of series: Test A pre/postemergence. The format is in vivo. The conditions noted are these: Setaria faberi, 240 h, read-out: Plant response rating, Foxtail, Giant; for pest or weed control at 125 g/ha: 125 g ai/ha; for pest or weed control at 500 g/ha: 500 g ai/ha. The essentials:
as §2

Series [7] concerns morningglory (Ipomoea spp.). Kind of series: Test A pre/postemergence. The format is in vivo. The conditions noted are these: Ipomoea, 240 h, read-out: Plant response rating, Morningglory; for pest or weed control at 125 g/ha: 125 g ai/ha; for pest or weed control at 500 g/ha: 500 g ai/ha. Put shortly:
as §2

Series [8] concerns redroot pigweed (Amaranthus retroflexus). The series can be described thus: Test A pre/postemergence. The format is in vivo. The conditions noted are these: Amaranthus retroflexus, 240 h, read-out: Plant response rating, Pigweed; for pest or weed control at 125 g/ha: 125 g ai/ha; for pest or weed control at 500 g/ha: 500 g ai/ha. The essentials:
as §2

In series [9] the test system is velvetleaf (Abutilon theophrasti). The series can be described thus: Test A pre/postemergence. The format is in vivo. The conditions noted are these: Abutilon theophrasti, 240 h, read-out: Plant response rating, Velvetleaf; for pest or weed control at 125 g/ha: 125 g ai/ha; for pest or weed control at 500 g/ha: 500 g ai/ha. Put shortly: as §2
The mark [10] stands for this setting: post-emergence, Postemergence, 0 to 100 scale (0 no effect, 100 complete control).
[11] abbreviates: pre-emergence, Preemergence, 0 to 100 scale where 0 is no effect and 100 is complete control, approximately ten days.

On to `COc1nc(C)nc(NC(=O)NS(=O)(=O)c2ccccc2Cl)n1` [Chlorsulfuron, chlorsulfuron, reference compound], for which the “Plant response rating (0 to 100 scale)” value was 5 in [1], 100 in series [2] and 20 in series [3].

For the compound `COC(=O)c1nc(C(C)C)nc(N)c1Cl` [Compound 110], the melting point was 100 to 104 °C (dec.). Further, in [4] (setting [10]), the pest or weed control at 125 g/ha was determined as 0% and the pest or weed control at 500 g/ha came out at 10%. Further, in series [4] (setting [11]), the pest or weed control at 125 g/ha is 0% and the pest or weed control at 500 g/ha worked out at 15%. In [5] (setting [10]), the pest or weed control at 125 g/ha was determined as 0% and the pest or weed control at 500 g/ha amounted to 10%. Further, in series [5] (setting [11]), the pest or weed control at 125 g/ha stood at 0% and the pest or weed control at 500 g/ha amounted to 15%. In addition, in series [6] (setting [10]), the pest or weed control at 125 g/ha was 0% and the pest or weed control at 500 g/ha came out at 5%. Moreover, in series [6] (setting [11]), the pest or weed control at 125 g/ha was found to be 0% and the pest or weed control at 500 g/ha amounted to 0%. Moreover, in [7] (setting [10]), the pest or weed control at 125 g/ha was determined as 70% and the pest or weed control at 500 g/ha was 85%. In series [7] (setting [11]), the pest or weed control at 125 g/ha stood at 0% and the pest or weed control at 500 g/ha was 90%. In [8] (setting [10]), the pest or weed control at 125 g/ha came to 55% and the pest or weed control at 500 g/ha is 85%. For the same compound, in series [8] (setting [11]), the pest or weed control at 125 g/ha is 40% and the pest or weed control at 500 g/ha came out at 65%. In [9] (setting [10]), the pest or weed control at 125 g/ha came to 40% and the pest or weed control at 500 g/ha was 65%. For the same compound, in series [9] (setting [11]), the pest or weed control at 125 g/ha amounted to 25% and the pest or weed control at 500 g/ha turned out to be 35%.

Turning to `CCOC(=O)c1nc(C(C)C)nc(N)c1Cl` [Compound 108], the melting point was 102 to 103 °C. For the same compound, in series [4] (setting [10]), the pest or weed control at 125 g/ha was determined as 0% and the pest or weed control at 500 g/ha was 5%. Further, in [4] (setting [11]), the pest or weed control at 125 g/ha came out at 10% and the pest or weed control at 500 g/ha was found to be 15%. Besides, in series [5] (setting [10]), the pest or weed control at 125 g/ha is 0% and the pest or weed control at 500 g/ha is 0%. Moreover, in series [5] (setting [11]), the pest or weed control at 125 g/ha was determined as 0% and the pest or weed control at 500 g/ha worked out at 20%. Further, in series [6] (setting [10]), the pest or weed control at 125 g/ha turned out to be 0% and the pest or weed control at 500 g/ha came out at 10%. In series [6] (setting [11]), the pest or weed control at 125 g/ha was 0% and the pest or weed control at 500 g/ha amounted to 0%. Also, in series [7] (setting [10]), the pest or weed control at 125 g/ha stood at 70% and the pest or weed control at 500 g/ha amounted to 90%. In series [7] (setting [11]), the pest or weed control at 125 g/ha was 0% and the pest or weed control at 500 g/ha turned out to be 90%. In [8] (setting [10]), the pest or weed control at 125 g/ha was determined as 50% and the pest or weed control at 500 g/ha came to 85%. In [8] (setting [11]), the pest or weed control at 125 g/ha stood at 55% and the pest or weed control at 500 g/ha amounted to 75%. Also, in series [9] (setting [10]), the pest or weed control at 125 g/ha turned out to be 35% and the pest or weed control at 500 g/ha worked out at 65%. Further, in [9] (setting [11]), the pest or weed control at 125 g/ha is 10% and the pest or weed control at 500 g/ha was 50%.

As to `NC(=O)c1nc(C2CC2)nc(N)c1Cl` [Compound 85], the melting point was 232 to 236 °C. Further, in series [4] (setting [10]), the pest or weed control at 125 g/ha was 0% and the pest or weed control at 500 g/ha amounted to 0%. Besides, in [4] (setting [11]), the pest or weed control at 125 g/ha stood at 0% and the pest or weed control at 500 g/ha came to 0%. Moreover, in series [5] (setting [10]), the pest or weed control at 125 g/ha worked out at 0% and the pest or weed control at 500 g/ha came to 0%. In series [5] (setting [11]), the pest or weed control at 125 g/ha stood at 0% and the pest or weed control at 500 g/ha worked out at 5%. In addition, in [6] (setting [10]), the pest or weed control at 125 g/ha was determined as 0% and the pest or weed control at 500 g/ha amounted to 0%. For the same compound, in series [6] (setting [11]), the pest or weed control at 125 g/ha stood at 0% and the pest or weed control at 500 g/ha turned out to be 0%. Further, in [7] (setting [10]), the pest or weed control at 125 g/ha was 20% and the pest or weed control at 500 g/ha stood at 75%. Also, in series [7] (setting [11]), the pest or weed control at 125 g/ha amounted to 0% and the pest or weed control at 500 g/ha was 20%. In addition, in series [8] (setting [10]), the pest or weed control at 125 g/ha stood at 75% and the pest or weed control at 500 g/ha is 90%. For the same compound, in series [8] (setting [11]), the pest or weed control at 125 g/ha was determined as 50% and the pest or weed control at 500 g/ha stood at 60%. For the same compound, in series [9] (setting [10]), the pest or weed control at 125 g/ha was 25% and the pest or weed control at 500 g/ha was 60%. Moreover, in series [9] (setting [11]), the pest or weed control at 125 g/ha worked out at 0% and the pest or weed control at 500 g/ha was determined as 10%.
